pIC50, pKd: −log10 of the molar value.
Legend:
[1] = target: full-length human RORγt (GAL4-DBD-RORγt fusion) in HEK293T cells (Homo sapiens (Human), UniProt P51449); assay: RORγt (full-length human) reporter assay, conditions A or B; format: cell-based; conditions: for pIC50: HEK293T cells, read-out: RORγt (FL) Reporter Assay A or B, IC50; for inhibition at 3 µM / inhibition at 1 µM / inhibition at 6 µM / inhibition at 2 µM: HEK-293T; for inhibition at 3 µM: 3 μM compound concentration (footnote *); for inhibition at 3 µM / inhibition at 1 µM / inhibition at 2 µM: read-out: RORγt (FL) Reporter Assay A or B, % inhibition; for inhibition at 1 µM: 1 μM compound concentration (footnote ***); for inhibition at 6 µM: 6 μM compound, read-out: RORγt (FL) Reporter Assay A or B, % inhibition @ 6 μM; for inhibition at 2 µM: 2 μM compound concentration
Method in brief: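 HEK293T cells expressing GAL4-DBD-RORγt fusion (96- or 384-well formats, DMEM/10% FBS) exposed to compound overnight (16–20 h). Firefly luciferase normalized to DMSO and saturating reference compound, then to Renilla; IC50 from dose curve, % inhibition versus DMSO.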

[2] = target: human RORγt ligand binding domain (RORγt LBD) (Homo sapiens (Human), UniProt P51449); assay: RORγt ThermoFluor assay
Chain of human RORγt ligand binding domain (RORγt LBD) (P51449 other isoform, or with tags, fused parts or gaps): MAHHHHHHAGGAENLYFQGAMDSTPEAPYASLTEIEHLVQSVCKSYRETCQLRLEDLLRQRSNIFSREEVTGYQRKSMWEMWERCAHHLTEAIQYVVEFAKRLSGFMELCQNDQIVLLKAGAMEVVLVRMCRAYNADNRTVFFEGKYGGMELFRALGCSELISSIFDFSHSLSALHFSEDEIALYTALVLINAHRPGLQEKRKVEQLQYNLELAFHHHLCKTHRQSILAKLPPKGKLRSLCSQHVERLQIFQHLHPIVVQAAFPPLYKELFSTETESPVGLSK

Chain of full-length human RORγt (GAL4-DBD-RORγt fusion) in HEK293T cells (P51449 other isoform, or with tags, fused parts or gaps): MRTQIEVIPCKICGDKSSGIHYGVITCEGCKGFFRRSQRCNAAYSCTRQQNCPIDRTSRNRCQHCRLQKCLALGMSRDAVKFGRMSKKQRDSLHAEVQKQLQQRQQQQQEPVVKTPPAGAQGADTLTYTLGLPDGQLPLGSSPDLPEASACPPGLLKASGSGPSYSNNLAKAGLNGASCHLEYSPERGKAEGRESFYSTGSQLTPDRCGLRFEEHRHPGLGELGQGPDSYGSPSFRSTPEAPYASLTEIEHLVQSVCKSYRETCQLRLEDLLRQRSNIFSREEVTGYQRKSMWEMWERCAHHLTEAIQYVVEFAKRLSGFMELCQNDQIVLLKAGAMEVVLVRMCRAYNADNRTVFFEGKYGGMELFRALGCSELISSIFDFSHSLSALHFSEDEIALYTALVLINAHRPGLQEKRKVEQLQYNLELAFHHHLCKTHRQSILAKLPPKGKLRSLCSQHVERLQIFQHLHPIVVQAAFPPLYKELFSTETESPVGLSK

## CCn1nc(C(=O)NC[C@]2(O)CC[C@@H](S(C)(=O)=O)CC2)c(Cl)c1-c1cnc(CCCC(F)(F)F)cc1OC(F)F [Example 33, 4-Chloro-5-(4-(difluoromethoxy)-6-(4,4,4-trifluorobutyl)pyridin-3-yl)-1-ethyl-N-(((1s,4s)-1-hydroxy-4-(methylsulfonyl)cyclohexyl)methyl)-1H-pyrazole-3-carboxamide]
[1]
  pIC50: 5.96
  inhibition at 3 µM: 66%
[2]
  pKd: 7.21

## CCn1nc(C(=O)NC[C@H]2CC[C@H](S(C)(=O)=O)CC2)c(C)c1-c1cnc(CCCC(F)(F)F)cc1OC(F)F [Example 34, 5-(4-(Difluoromethoxy)-6-(4,4,4-trifluorobutyl)pyridin-3-yl)-1-ethyl-4-methyl-N-(((1r,4r)-4-(methylsulfonyl)cyclohexyl)methyl)-1H-pyrazole-3-carboxamide]
[1]
  pIC50: 7.24
  inhibition at 1 µM: 92%
[2]
  pKd: 7.47

## CCn1nc(C(=O)NC[C@]2(O)CC[C@@H](S(C)(=O)=O)CC2)c(C)c1-c1cnc(CCCC(F)(F)F)cc1OC(F)F [Example 35, 5-(4-(Difluoromethoxy)-6-(4,4,4-trifluorobutyl)pyridin-3-yl)-1-ethyl-N-(((1s,4s)-1-hydroxy-4-(methylsulfonyl)cyclohexyl)methyl)-4-methyl-1H-pyrazole-3-carboxamide]
[1]
  pIC50: 7.20
  inhibition at 1 µM: 76%
[2]
  pKd: 7.00

## CCn1nc(C(=O)NC[C@]2(O)CC[C@@H](S(C)(=O)=O)CC2)c(Cl)c1-c1cnc(OCC(C)(C)C(F)(F)F)cc1OC [Example 36, 4-Chloro-1-ethyl-N-(((1s,4s)-1-hydroxy-4-(methylsulfonyl)cyclohexyl)methyl)-5-(4-methoxy-6-(3,3,3-trifluoro-2,2-dimethylpropoxy)pyridin-3-yl)-1H-pyrazole-3-carboxamide]
[1]
  pIC50: 7.48
  inhibition at 3 µM: 104%
[2]
  pKd: 7.70

## CCn1nc(C(=O)NC[C@]2(O)CC[C@@H](S(C)(=O)=O)CC2)c(Cl)c1-c1cnc(CC(C)(C)C(F)F)cc1OC(F)F [Example 38, 4-Chloro-5-(6-(3,3-difluoro-2,2-dimethylpropyl)-4-(difluoromethoxy)pyridin-3-yl)-1-ethyl-N-(((1s,4s)-1-hydroxy-4-(methylsulfonyl)cyclohexyl)methyl)-1H-pyrazole-3-carboxamide]
[1]
  pIC50: 6.66
  inhibition at 3 µM: 88%
[2]
  pKd: 7.82

## CCn1nc(C(=O)NC[C@H]2CC[C@H](S(C)(=O)=O)CC2)c(C)c1-c1cnc(CC(C)(C)C(F)F)cc1OC(F)F [Example 41, 5-(6-(3,3-Difluoro-2,2-dimethylpropyl)-4-(difluoromethoxy)pyridin-3-yl)-1-ethyl-4-methyl-N-(((1r,4r)-4-(methylsulfonyl)cyclohexyl)methyl)-1H-pyrazole-3-carboxamide]
[1]
  pIC50: 7.35
  inhibition at 3 µM: 102%
[2]
  pKd: 8.16

## CCn1nc(C(=O)NC[C@]2(O)CC[C@@H](S(C)(=O)=O)CC2)c(C)c1-c1cnc(CC(C)(C)C(F)F)cc1OC(F)F [Example 42, 5-(6-(3,3-Difluoro-2,2-dimethylpropyl)-4-(difluoromethoxy)pyridin-3-yl)-1-ethyl-N-(((1s,4s)-1-hydroxy-4-(methylsulfonyl)cyclohexyl)methyl)-4-methyl-1H-pyrazole-3-carboxamide]
[1]
  pIC50: 6.37
  inhibition at 3 µM: 95%
[2]
  pKd: 7.46

## CCn1nc(C(=O)NC[C@H]2CC[C@H](S(C)(=O)=O)CC2)c(Cl)c1-c1ccc(CC(C)(C)C(F)(F)F)nc1OC(F)F [Example 45, 4-Chloro-5-(2-(difluoromethoxy)-6-(3,3,3-trifluoro-2,2-dimethylpropyl)pyridin-3-yl)-1-ethyl-N-(((1r,4r)-4-(methylsulfonyl)cyclohexyl)methyl)-1H-pyrazole-3-carboxamide]
[1]
  pIC50: 7.96
  inhibition at 3 µM: 86%
[2]
  pKd: 9.46

## CCn1nc(C(=O)NC[C@]2(O)CC[C@@H](S(C)(=O)=O)CC2)c(Cl)c1-c1ccc(CC(C)(C)C(F)(F)F)nc1OC(F)F [Example 46, 4-Chloro-5-(2-(difluoromethoxy)-6-(3,3,3-trifluoro-2,2-dimethylpropyl)pyridin-3-yl)-1-ethyl-N-(((1s,4s)-1-hydroxy-4-(methylsulfonyl)cyclohexyl)methyl)-1H-pyrazole-3-carboxamide]
[1]
  pIC50: 7.05
  inhibition at 3 µM: 97%
[2]
  pKd: 9.18

## CCn1nc(C(=O)NC[C@H]2CC[C@H](S(C)(=O)=O)CC2)c(C)c1-c1ccc(CC(C)(C)C(F)(F)F)nc1OC(F)F [Example 49, 5-(2-(Difluoromethoxy)-6-(3,3,3-trifluoro-2,2-dimethylpropyl)pyridin-3-yl)-1-ethyl-4-methyl-N-(((1r,4r)-4-(methylsulfonyl)cyclohexyl)methyl)-1H-pyrazole-3-carboxamide]
[1]
  pIC50: 8.19
  inhibition at 3 µM: 106%
[2]
  pKd: 9.55

## CCn1nc(C(=O)NC[C@]2(O)CC[C@@H](S(C)(=O)=O)CC2)c(C)c1-c1ccc(CC(C)(C)C(F)(F)F)nc1OC(F)F [Example 50, 5-(2-(Difluoromethoxy)-6-(3,3,3-trifluoro-2,2-dimethylpropyl)pyridin-3-yl)-1-ethyl-N-(((1s,4s)-1-hydroxy-4-(methylsulfonyl)cyclohexyl)methyl)-4-methyl-1H-pyrazole-3-carboxamide]
[1]
  pIC50: 7.70
  inhibition at 1 µM: 100%
[2]
  pKd: 8.89

## CCn1nc(C(=O)NC[C@H]2CC[C@H](S(C)(=O)=O)CC2)c(Cl)c1-c1ncc(CC(C)(C)C(F)(F)F)cc1OC(F)F [Example 52, 4-Chloro-5-(3-(difluoromethoxy)-5-(3,3,3-trifluoro-2,2-dimethylpropyl)pyridin-2-yl)-1-ethyl-N-(((1r,4r)-4-(methylsulfonyl)cyclohexyl)methyl)-1H-pyrazole-3-carboxamide]
[1]
  pIC50: 7.24
  inhibition at 3 µM: 85%
[2]
  pKd: 8.33

## CCn1nc(C(=O)NC[C@]2(O)CC[C@@H](S(C)(=O)=O)CC2)c(Cl)c1-c1ncc(CC(C)(C)C(F)(F)F)cc1OC(F)F [Example 53, 4-Chloro-5-(3-(difluoromethoxy)-5-(3,3,3-trifluoro-2,2-dimethylpropyl)pyridin-2-yl)-1-ethyl-N-(((1s,4s)-1-hydroxy-4-(methylsulfonyl)cyclohexyl)methyl)-1H-pyrazole-3-carboxamide]
[1]
  pIC50: 6.60
  inhibition at 3 µM: 83%
[2]
  pKd: 7.74

## CCn1nc(C(=O)NC[C@H]2CC[C@H](S(C)(=O)=O)CC2)c(Cl)c1-c1cnc(CC(C)(C)C(F)(F)F)cc1C(C)(F)F [Example 54, 4-Chloro-5-(4-(1,1-difluoroethyl)-6-(3,3,3-trifluoro-2,2-dimethylpropyl)pyridin-3-yl)-1-ethyl-N-(((1r,4r)-4-(methylsulfonyl)cyclohexyl)methyl)-1H-pyrazole-3-carboxamide]
[1]
  pIC50: 6.62
  inhibition at 3 µM: 42%
[2]
  pKd: 7.89

## CCc1cc(CC(C)(C)C(F)(F)F)ncc1-c1c(Cl)c(C(=O)NC[C@]2(O)CC[C@@H](S(C)(=O)=O)CC2)nn1CC [Example 55, 4-Chloro-1-ethyl-5-(4-ethyl-6-(3,3,3-trifluoro-2,2-dimethylpropyl)pyridin-3-yl)-N-(((1s,4s)-1-hydroxy-4-(methylsulfonyl)cyclohexyl)methyl)-1H-pyrazole-3-carboxamide]
[1]
  pIC50: 6.55
  inhibition at 3 µM: 78%
[2]
  pKd: 7.52

## CCc1cc(CCC(C)(C)C)ncc1-c1c(Cl)c(C(=O)NC[C@]2(O)CC[C@@H](S(C)(=O)=O)CC2)nn1CC [Example 59, 4-Chloro-5-(6-(3,3-dimethylbutyl)-4-ethylpyridin-3-yl)-1-ethyl-N-(((1s,4s)-1-hydroxy-4-(methylsulfonyl)cyclohexyl)methyl)-1H-pyrazole-3-carboxamide]
[1]
  pIC50: 6.68
  inhibition at 3 µM: 82%
[2]
  pKd: 7.46

## CCn1nc(C(=O)NC[C@H]2CC[C@H](S(C)(=O)=O)CC2)c(Cl)c1-c1cnc(CC(C)C(F)(F)F)cc1OC (stereo partly drawn) [Example 60, 4-Chloro-1-ethyl-5-(4-methoxy-6-(3,3,3-trifluoro-2-methylpropyl)pyridin-3-yl)-N-(((1r,4r)-4-(methylsulfonyl)cyclohexyl)methyl)-1H-pyrazole-3-carboxamide]
[1]
  pIC50: 6.62
  inhibition at 6 µM: 88%
[2]
  pKd: 7.96

## CCn1nc(C(=O)NC[C@]2(O)CC[C@@H](S(C)(=O)=O)CC2)c(Cl)c1-c1cnc(O[C@H](C)C(F)(F)F)cc1OC [Example 63, 4-Chloro-1-ethyl-N-(((1r,4R)-1-hydroxy-4-(methylsulfonyl)cyclohexyl)methyl)-5-(4-methoxy-6-(((R)-1,1,1-trifluoropropan-2-yl)oxy)pyridin-3-yl)-1H-pyrazole-3-carboxamide]
[1]
  pIC50: 6.85
  inhibition at 6 µM: 86%
[2]
  pKd: 7.92

## CCn1nc(C(=O)NC[C@H]2CC[C@H](S(C)(=O)=O)CC2)c(Cl)c1-c1cnc(O[C@@H](C)C(F)(F)F)cc1OC [Example 64]
[1]
  pIC50: 6.55
  inhibition at 2 µM: 39%
[2]
  pKd: 7.82

## CCn1nc(C(=O)NC[C@H]2CC[C@H](S(C)(=O)=O)CC2)c(Cl)c1-c1cnc(O[C@H](C)C(F)(F)F)cc1OC [Example 65]
[1]
  pIC50: 7.39
  inhibition at 2 µM: 75%
[2]
  pKd: 7.92
